Data set [1] can be described thus: Metabolic stability in rat liver microsomes at 2 uM after 30 mins by LC-MS method. It counts as ADME, microsome. The note with it: 0.5 h.
Data set [2] concerns Mycobacterium tuberculosis. As to the kind of experiment: Antitubercular activity against Mycobacterium tuberculosis H37Rv expressing DsRed using 7H9-Ty-10BT medium after 6 days by 2-fold serial dilution method. Type of data set: functional. The note with it: 144 h.
The nature of data set [3]: Aqueous solubility of the compound at pH 6. Type of data set: physicochemical. Particulars: buffer.
Data set [4] in a line: Aqueous solubility of the compound at pH 7.4. Type of data set: physicochemical. Particulars: buffer.

Converted amounts (≈) assume the structure as drawn.

Regarding `c1ccc(-c2nnc(CN3CCCc4ccccc43)o2)cc1`, in data set [1], the Stability result is on record as “Stable”.
As to `c1csc(-c2nnc(COc3ccc4c(c3)OCO4)o2)c1`, in data set [1], the Stability entry is on record as “Stable”.
Regarding `c1csc(-c2nnc(Cc3cccc4ccccc34)o2)c1`, the Stability entry in data set [1] is “Stable”. The same molecule gave an MIC in data set [2] of 0.4 µM (≈ 0.117 µg/mL).
Take `Fc1cccc(Cl)c1CNCc1nnc(-c2ccco2)o1`: the Stability result in data set [1] is “Stable”.
On the same count and under the same terms, next, `c1csc(-c2nnc(CN3CCc4ccccc43)o2)c1`: “Stable”.
In the case of `CN(CCc1c(F)cccc1Cl)c1nnc(-c2ccco2)o1`, in data set [1], the Stability result is reported as “Stable”.
On the same count and under the same terms, next, `c1ccc(-c2nnc(CN3Cc4ccccc4C3)o2)cc1`: “Stable”.
On the same count and under the same terms, next, `c1coc(-c2nnc(Cc3cccc4ccccc34)o2)c1`: “Stable”; `CN(Cc1nnc(-c2ccco2)s1)Cc1c(F)cccc1Cl`: “Stable”.
The molecule `CN(Cc1nnc(-c2ccco2)o1)Cc1c(F)cccc1Cl.O=C(O)/C=C\C(=O)O` returned a solubility in data set [3] of 687 µg/mL. The molecule further displayed a thermodynamic solubility in data set [4] of 717 µg/mL.
As to `c1ccc(C2CCCN2Cc2nnc(-c3cccs3)o2)cc1` (stereo unspecified), the Stability entry in data set [1] is “Stable”.
The same measure, in the same setting: next, `c1coc(-c2nnc(SCc3cccc4ccccc34)o2)c1`: “Stable”; `CN(Cc1nnc(-c2ccco2)o1)C(=O)c1c(F)cccc1Cl`: “Stable”; `c1csc(-c2nnc(CN3Cc4ccccc4C3)o2)c1`: “Stable”.
The same measure, in the same setting: the value for `c1ccc(-c2nnc(CN3CCOc4ccccc43)o2)cc1` was “Stable”; that for `c1csc(-c2nnc(Cc3ccc4ccccc4c3)o2)c1` was “Stable”.
The same measure, in the same setting: the value for `CN(Cc1ccc(C(F)(F)F)cc1)Cc1nnc(-c2ccccc2)o1` was “Stable”.
With `Fc1ccc(-c2nnc(CN3CCCc4ccccc43)o2)cc1`, the Stability entry in data set [1] is “Stable”.
As to `FC(F)(F)c1ccc(-c2nnc(CN3CCc4ccccc4C3)o2)cc1`, in data set [1], the Stability entry was “Stable”.
Still for that read-out and setting: next, `Fc1cccc(Cl)c1COCc1nnc(-c2ccco2)o1`: “Stable”; `CN(Cc1ccccc1)Cc1nnc(-c2cccs2)o1`: “Stable”; `c1ccc(-c2nnc(CN3CCc4ccccc4C3)o2)cc1`: “Stable”.
Still for that read-out and setting: the value for `c1ccc(-c2nnc(CN3CCCC3c3ccccc3)o2)cc1` (stereo unspecified) was “Stable”; that for `Fc1ccc(-c2nnc(CN3CCOc4ccccc43)o2)cc1` was “Stable”; that for `CN(Cc1nnc(-c2ccco2)o1)Cc1ccccc1Cl` was “Stable”.
Same read-out and setting: the value for `c1csc(-c2nnc(Cc3cccc4c3OCCO4)o2)c1` was “Stable”.
With `CC1CCc2ccccc2N1Cc1nc(-c2ccsc2)no1` (stereo unspecified), in data set [1], the Stability entry was “Stable”. This molecule came in with an MIC in data set [2] of 2.2 µM (≈ 0.685 µg/mL).
Take `c1csc(-c2nnc(CN3CCOc4ccccc43)o2)c1`: in data set [1], the Stability result was “Stable”.
Same read-out and setting: the value for `CN(Cc1ccc(C(F)(F)F)cc1)Cc1nnc(-c2cccs2)o1` was “Stable”; that for `CN(Cc1nnc(-c2ccccc2)o1)Cc1c(F)cccc1Cl` was “Stable”; that for `FC(F)(F)c1ccc(-c2nnc(CN3CCCc4ccccc43)o2)cc1` was “Stable”.
On to `Fc1ccc(-c2nnc(CN3CCc4ccccc4C3)o2)cc1`, for which, in data set [1], the Stability entry was “Stable”.
Take `c1csc(-c2nnc(CN3CCc4ccccc4C3)o2)c1`: the Stability result in data set [1] is listed as “Stable”.
On the same count and under the same terms, next, `FC(F)(F)c1ccc(-c2nnc(CN3CCOc4ccccc43)o2)cc1`: “Stable”; `c1ccc(-c2nnc(CN3CCc4ccccc43)o2)cc1`: “Stable”.
On the same count and under the same terms, the value for `CN(Cc1ccc(F)cc1)Cc1nnc(-c2ccccc2)o1` was “Stable”; that for `CN(Cc1nnc(-c2cccs2)o1)Cc1c(F)cccc1Cl` was “Stable”; that for `CN(Cc1ccccc1)Cc1nnc(-c2ccco2)o1` was “Stable”.
The same measure, in the same setting: next, `CN(Cc1nnc(-c2ccco2)o1)CC1CCCCC1`: “Stable”; `c1ccc(Cc2nnc(-c3cccs3)o2)cc1`: “Stable”.
With `CN(Cc1nnc(-c2ccco2)o1)Cc1c(F)cccc1Cl`, the Stability entry in data set [1] is “Stable”. Besides, in data set [2], the minimal inhibitory concentration (MIC) amounted to 0.8 µM (≈ 0.257 µg/mL).
`c1csc(-c2nnc(CN3CCCc4ccccc43)o2)c1`: the Stability result in data set [1] is given as “Stable”.

These data come from ChEMBL document CHEMBL4219239, “Synthesis and biological evaluation of aryl-oxadiazoles as inhibitors of Mycobacterium tuberculosis” (Bioorg Med Chem Lett, 2018).
